This series in a line: pH of aqueous lidocaine hydrochloride solution brought into contact with an activated carbon fiber polarizable electrode. The class given is physicochemical. Conditions: after contact with polarizable electrode composed of activated carbon fibers, within an extremely short time period.

Counter-ions that a name gives are not always drawn.

In the case of `CCN(CC)CC(=O)Nc1c(C)cccc1C` [lidocaine hydrochloride], the “pH value of aqueous solution” value was “about 2.5”.
